Test results taken from PubChem BioAssay AID180 (DTP/NCI, 2004).
Where “and” joins values, the source holds several entries; their conditions need not be identical. Identical values can stand only once.

Test system: BDF1 mice, Adenocarcinoma 755 s.c., tumor weight T/C
Experiment: NCI In Vivo Anticancer Drug Screen. Data for tumor model Adenocarcinoma 755 (subcutaneous) in B6D2F1 (BDF1) mice
Conditions: endpoint: mean tumor weight, schedule: Q01DX011 (ip), higher = larger tumour
Outline: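 Transplantable tumor implanted; mice dosed with compound or vehicle; survival or tumor size recorded; ratio of treated to vehicle control reported.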

[1] = dose: 31.0 mg/kg/injection, vehicle: methylcellulose (MC)
[2] = dose: 50.0 mg/kg/injection, vehicle: methylcellulose (MC)
[3] = dose: 100.0 mg/kg/injection, vehicle: methylcellulose (MC)

With CNc1ncnc2c1ncn2C1CCCO1 (stereo not drawn) the T/C (dose: 50.0 mg/kg/injection, vehicle: saline) was 119 % of control, the T/C (dose: 100.0 mg/kg/injection, vehicle: saline) was 86 % of control and the T/C (dose: 200.0 mg/kg/injection, vehicle: saline) was 51 % of control.
NS(=O)(=O)c1nc(Cl)c2[nH]cnc2n1 was tested, and the T/C (dose: 25.0 mg/kg/injection, vehicle: carboxymethylcellulose (CMC)) was 116 % of control, the T/C (dose: 75.0 mg/kg/injection, vehicle: carboxymethylcellulose (CMC)) was 73 % of control and the T/C (dose: 225.0 mg/kg/injection, vehicle: carboxymethylcellulose (CMC)) was 69 % of control.
For CN(C)c1nc(N)c2ncn(C3OC(CO)C(O)C3O)c2n1 (stereo not drawn), the T/C [1] was 80 % of control and the T/C (dose: 125.0 mg/kg/injection, vehicle: methylcellulose (MC)) was 74 % of control.
With O=C(N[C@H](CO)[C@H](O)c1ccc([N+](=O)[O-])cc1)C(Cl)Cl the T/C (dose: 71.73 mg/kg/injection, vehicle: carboxymethylcellulose (CMC)) was 88 % of control, the T/C (dose: 73.63 mg/kg/injection, vehicle: carboxymethylcellulose (CMC)) was 103 % of control and 106 % of control and the T/C (dose: 95.85 mg/kg/injection, vehicle: carboxymethylcellulose (CMC)) was 95 % of control. For the same compound, the T/C (dose: 143.47 mg/kg/injection, vehicle: carboxymethylcellulose (CMC)) was 104 % of control, the T/C (dose: 147.25 mg/kg/injection, vehicle: carboxymethylcellulose (CMC)) was 71 % of control and the T/C (dose: 187.5 mg/kg/injection, vehicle: methylcellulose (MC)) was 70 % of control. The T/C (dose: 191.7 mg/kg/injection, vehicle: carboxymethylcellulose (CMC)) was 156 % of control, the T/C (dose: 286.95 mg/kg/injection, vehicle: carboxymethylcellulose (CMC)) was 115 % of control and the T/C (dose: 294.5 mg/kg/injection, vehicle: carboxymethylcellulose (CMC)) was 65 % of control. For the same compound, the T/C (dose: 300.0 mg/kg/injection, vehicle: carboxymethylcellulose (CMC)) was 104 % of control, the T/C (dose: 375.0 mg/kg/injection, vehicle: methylcellulose (MC)) was 62 % of control and the T/C (dose: 500.0 mg/kg/injection, vehicle: carboxymethylcellulose (CMC)) was 69 % of control. For the same compound, the T/C (dose: 750.0 mg/kg/injection, vehicle: methylcellulose (MC)) was 99 % of control.
CC(=O)OCC1OC(n2cnc3c(N)ncnc32)CC1OC(C)=O (stereo not drawn) was tested, and the T/C (dose: 30.0 mg/kg/injection, vehicle: carboxymethylcellulose (CMC)) was 55 % of control and 68 % of control, the T/C (dose: 120.0 mg/kg/injection, vehicle: carboxymethylcellulose (CMC)) was 97 % of control and 111 % of control and the T/C (dose: 240.0 mg/kg/injection, vehicle: carboxymethylcellulose (CMC)) was 108 % of control and 109 % of control.
With Nc1nc(=S)cc(Nc2ccc(Cl)c(Cl)c2)[nH]1 the T/C (dose: 15.0 mg/kg/injection, vehicle: methylcellulose (MC)) was 114 % of control and the T/C [1] was 92 % of control.
In the case of Nc1nc(Oc2ccc(Cl)cc2)c2n[nH]nc2n1, the T/C (dose: 200.0 mg/kg/injection, vehicle: carboxymethylcellulose (CMC)) is reported as 66 % of control.
With COC(=O)c1[nH]c(=O)[nH]c(=O)c1F the T/C (dose: 3.0 mg/kg/injection, vehicle: methylcellulose (MC)) was 72 % of control, the T/C (dose: 6.0 mg/kg/injection, vehicle: methylcellulose (MC)) was 63 % of control and the T/C (dose: 12.0 mg/kg/injection, vehicle: methylcellulose (MC)) was 91 % of control.
Nc1nc(=S)c2ncn(C3OC(COC(=O)c4ccccc4)C(OC(=O)c4ccccc4)C3OC(=O)c3ccccc3)c2[nH]1 (stereo not drawn) was tested, and the T/C (dose: 12.5 mg/kg/injection, vehicle: methylcellulose (MC)) was 52 % of control, the T/C (dose: 25.0 mg/kg/injection, vehicle: methylcellulose (MC)) was 49 % of control and the T/C [2] was 7 % of control. The T/C [3] was 3 % of control.
O=C(NCCCl)N1CCN(C(=O)NCCCl)CC1 was tested, and the T/C [2] was 55 % of control, the T/C [3] was 67 % of control and the T/C (dose: 200.0 mg/kg/injection, vehicle: methylcellulose (MC)) was 39 % of control. The T/C (dose: 400.0 mg/kg/injection, vehicle: methylcellulose (MC)) was 24 % of control.
